According to ChEMBL document CHEMBL2417394, “Exquisite selectivity for human toll-like receptor 8 in substituted furo[2,3-c]quinolines” (J Med Chem, 2013):
Active and inactive are the calls of the source.

What was measured:
[1] = molecular target: Toll-like receptor 5 (Homo sapiens) (UniProt O60602); test: Antagonist activity at human TLR5 expressed in HEK293 cells co-transfected with MD2 and sAP assessed as inhibition of NF-kappaB activity by reporter gene assay; format: cell-based
[2] = molecular target: Nucleotide-binding oligomerization domain-containing protein 2 (Homo sapiens) (UniProt Q9HC29); test: Antagonist activity at NOD2 (unknown origin)
[3] = molecular target: Toll-like receptor 4 (Homo sapiens) (UniProt O00206); test: Antagonist activity at human TLR4 expressed in HEK293 cells co-transfected with MD2 and sAP assessed as inhibition of NF-kappaB activity by reporter gene assay; format: cell-based
[4] = molecular target: T1, Nucleotide-binding oligomerization domain-containing protein 1 (Homo sapiens) (UniProt Q9Y239); test: Antagonist activity at NOD1 (unknown origin)
T1 sequence (whole entry): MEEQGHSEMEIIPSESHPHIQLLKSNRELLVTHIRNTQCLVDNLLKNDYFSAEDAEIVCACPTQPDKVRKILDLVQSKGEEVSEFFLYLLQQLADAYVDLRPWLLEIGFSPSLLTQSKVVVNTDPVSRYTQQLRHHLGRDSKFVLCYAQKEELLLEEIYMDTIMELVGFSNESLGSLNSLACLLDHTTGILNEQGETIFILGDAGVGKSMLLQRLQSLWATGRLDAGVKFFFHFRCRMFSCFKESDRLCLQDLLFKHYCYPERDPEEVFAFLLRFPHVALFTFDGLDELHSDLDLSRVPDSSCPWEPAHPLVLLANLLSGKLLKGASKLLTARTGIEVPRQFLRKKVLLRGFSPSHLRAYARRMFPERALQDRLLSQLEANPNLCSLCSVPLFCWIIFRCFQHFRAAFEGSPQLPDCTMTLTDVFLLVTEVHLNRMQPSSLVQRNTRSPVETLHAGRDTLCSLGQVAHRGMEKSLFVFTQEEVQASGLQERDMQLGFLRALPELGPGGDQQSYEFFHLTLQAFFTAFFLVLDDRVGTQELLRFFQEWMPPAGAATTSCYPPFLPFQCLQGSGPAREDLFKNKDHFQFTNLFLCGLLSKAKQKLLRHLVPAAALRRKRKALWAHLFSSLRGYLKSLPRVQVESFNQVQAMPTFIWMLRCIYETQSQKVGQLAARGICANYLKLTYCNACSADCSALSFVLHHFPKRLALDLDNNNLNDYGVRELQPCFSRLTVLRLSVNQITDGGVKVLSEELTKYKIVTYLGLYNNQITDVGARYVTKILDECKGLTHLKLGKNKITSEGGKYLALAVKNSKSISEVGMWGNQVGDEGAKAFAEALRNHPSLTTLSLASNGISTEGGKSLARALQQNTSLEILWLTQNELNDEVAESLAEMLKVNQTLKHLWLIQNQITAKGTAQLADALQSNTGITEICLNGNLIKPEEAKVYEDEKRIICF

[5] = molecular target: T2, Toll-like receptor 7 (Homo sapiens) (UniProt Q9NYK1); test: Antagonist activity at human TLR7 expressed in HEK293 cells co-transfected with MD2 and sAP assessed as inhibition of NF-kappaB activity by reporter gene assay; format: cell-based
T2 sequence (whole entry): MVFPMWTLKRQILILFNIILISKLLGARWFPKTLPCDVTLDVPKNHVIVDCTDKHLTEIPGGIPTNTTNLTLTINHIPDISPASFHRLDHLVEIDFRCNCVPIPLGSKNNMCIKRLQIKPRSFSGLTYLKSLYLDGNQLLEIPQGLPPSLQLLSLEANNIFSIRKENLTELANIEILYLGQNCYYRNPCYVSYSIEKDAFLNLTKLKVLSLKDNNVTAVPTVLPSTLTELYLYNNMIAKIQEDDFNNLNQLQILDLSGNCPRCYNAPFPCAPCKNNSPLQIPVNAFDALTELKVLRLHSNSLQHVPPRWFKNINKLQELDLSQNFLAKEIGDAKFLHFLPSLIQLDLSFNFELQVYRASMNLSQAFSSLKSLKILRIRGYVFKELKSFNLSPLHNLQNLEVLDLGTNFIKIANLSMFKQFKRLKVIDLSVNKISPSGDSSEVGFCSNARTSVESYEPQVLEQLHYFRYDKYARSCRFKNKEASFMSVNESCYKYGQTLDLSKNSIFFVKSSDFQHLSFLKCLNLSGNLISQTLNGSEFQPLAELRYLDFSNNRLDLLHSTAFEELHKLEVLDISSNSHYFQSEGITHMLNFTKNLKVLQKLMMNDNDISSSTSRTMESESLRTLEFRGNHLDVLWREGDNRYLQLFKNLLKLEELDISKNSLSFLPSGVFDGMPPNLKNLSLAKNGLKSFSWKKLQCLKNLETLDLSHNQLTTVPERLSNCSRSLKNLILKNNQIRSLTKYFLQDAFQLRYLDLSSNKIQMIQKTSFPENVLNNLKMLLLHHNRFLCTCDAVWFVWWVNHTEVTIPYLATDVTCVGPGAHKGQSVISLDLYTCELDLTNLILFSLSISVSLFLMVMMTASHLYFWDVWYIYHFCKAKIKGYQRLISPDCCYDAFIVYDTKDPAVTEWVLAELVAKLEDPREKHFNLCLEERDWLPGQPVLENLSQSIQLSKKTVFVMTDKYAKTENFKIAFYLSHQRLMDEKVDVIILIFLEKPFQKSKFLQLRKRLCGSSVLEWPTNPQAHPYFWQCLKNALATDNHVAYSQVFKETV

[6] = molecular target: Toll-like receptor 2 (Homo sapiens) (UniProt O60603); test: Antagonist activity at human TLR2 expressed in HEK293 cells co-transfected with MD2 and sAP assessed as inhibition of NF-kappaB activity by reporter gene assay; format: cell-based

Measured: inhibition

Toll-like receptor 2 (Homo sapiens), sequence (O60603 whole entry): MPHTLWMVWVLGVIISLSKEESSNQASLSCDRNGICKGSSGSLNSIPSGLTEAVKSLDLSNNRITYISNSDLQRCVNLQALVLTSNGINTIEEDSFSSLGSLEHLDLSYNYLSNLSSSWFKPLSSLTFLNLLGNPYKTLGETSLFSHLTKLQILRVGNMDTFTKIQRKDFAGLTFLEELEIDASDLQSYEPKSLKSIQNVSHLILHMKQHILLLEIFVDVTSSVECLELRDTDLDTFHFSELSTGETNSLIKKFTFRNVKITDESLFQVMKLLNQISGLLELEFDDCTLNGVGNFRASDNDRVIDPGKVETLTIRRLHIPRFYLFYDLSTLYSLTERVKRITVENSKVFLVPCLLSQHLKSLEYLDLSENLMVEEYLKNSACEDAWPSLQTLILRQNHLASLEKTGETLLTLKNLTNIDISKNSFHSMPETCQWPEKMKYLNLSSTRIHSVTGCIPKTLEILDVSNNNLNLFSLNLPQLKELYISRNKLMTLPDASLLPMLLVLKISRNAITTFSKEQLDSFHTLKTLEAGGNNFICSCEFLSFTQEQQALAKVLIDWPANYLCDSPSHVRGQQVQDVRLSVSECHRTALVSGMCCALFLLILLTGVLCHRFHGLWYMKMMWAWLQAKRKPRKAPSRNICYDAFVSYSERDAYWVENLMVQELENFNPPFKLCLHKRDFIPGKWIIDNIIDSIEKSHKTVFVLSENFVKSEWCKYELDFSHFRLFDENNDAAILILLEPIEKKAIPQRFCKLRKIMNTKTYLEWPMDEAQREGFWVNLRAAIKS
Toll-like receptor 4 (Homo sapiens), sequence (O00206 whole entry, the tested form may be a part): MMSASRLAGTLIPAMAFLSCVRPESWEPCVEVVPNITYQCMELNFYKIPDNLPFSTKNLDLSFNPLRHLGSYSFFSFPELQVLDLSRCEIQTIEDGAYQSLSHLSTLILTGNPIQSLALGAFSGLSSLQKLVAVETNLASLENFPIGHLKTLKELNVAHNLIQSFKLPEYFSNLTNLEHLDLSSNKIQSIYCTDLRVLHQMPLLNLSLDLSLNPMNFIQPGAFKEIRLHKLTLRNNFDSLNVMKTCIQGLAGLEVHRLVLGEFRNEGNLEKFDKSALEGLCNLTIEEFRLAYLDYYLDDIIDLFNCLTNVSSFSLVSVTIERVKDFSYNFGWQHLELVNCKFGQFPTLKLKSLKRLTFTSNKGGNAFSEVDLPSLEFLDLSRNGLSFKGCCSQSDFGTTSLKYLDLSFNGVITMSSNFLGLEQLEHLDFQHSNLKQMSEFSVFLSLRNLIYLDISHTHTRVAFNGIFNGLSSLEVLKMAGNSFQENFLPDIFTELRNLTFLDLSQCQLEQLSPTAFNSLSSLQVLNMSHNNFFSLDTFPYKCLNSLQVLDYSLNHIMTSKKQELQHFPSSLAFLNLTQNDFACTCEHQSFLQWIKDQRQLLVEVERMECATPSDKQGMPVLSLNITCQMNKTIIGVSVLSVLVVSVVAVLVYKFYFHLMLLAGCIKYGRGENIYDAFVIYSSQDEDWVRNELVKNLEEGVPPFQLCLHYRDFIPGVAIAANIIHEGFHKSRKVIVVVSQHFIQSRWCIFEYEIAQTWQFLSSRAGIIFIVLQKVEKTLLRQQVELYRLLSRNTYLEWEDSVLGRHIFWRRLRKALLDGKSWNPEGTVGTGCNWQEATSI
Toll-like receptor 5 (Homo sapiens), sequence (O60602 whole entry, the tested form may be a part): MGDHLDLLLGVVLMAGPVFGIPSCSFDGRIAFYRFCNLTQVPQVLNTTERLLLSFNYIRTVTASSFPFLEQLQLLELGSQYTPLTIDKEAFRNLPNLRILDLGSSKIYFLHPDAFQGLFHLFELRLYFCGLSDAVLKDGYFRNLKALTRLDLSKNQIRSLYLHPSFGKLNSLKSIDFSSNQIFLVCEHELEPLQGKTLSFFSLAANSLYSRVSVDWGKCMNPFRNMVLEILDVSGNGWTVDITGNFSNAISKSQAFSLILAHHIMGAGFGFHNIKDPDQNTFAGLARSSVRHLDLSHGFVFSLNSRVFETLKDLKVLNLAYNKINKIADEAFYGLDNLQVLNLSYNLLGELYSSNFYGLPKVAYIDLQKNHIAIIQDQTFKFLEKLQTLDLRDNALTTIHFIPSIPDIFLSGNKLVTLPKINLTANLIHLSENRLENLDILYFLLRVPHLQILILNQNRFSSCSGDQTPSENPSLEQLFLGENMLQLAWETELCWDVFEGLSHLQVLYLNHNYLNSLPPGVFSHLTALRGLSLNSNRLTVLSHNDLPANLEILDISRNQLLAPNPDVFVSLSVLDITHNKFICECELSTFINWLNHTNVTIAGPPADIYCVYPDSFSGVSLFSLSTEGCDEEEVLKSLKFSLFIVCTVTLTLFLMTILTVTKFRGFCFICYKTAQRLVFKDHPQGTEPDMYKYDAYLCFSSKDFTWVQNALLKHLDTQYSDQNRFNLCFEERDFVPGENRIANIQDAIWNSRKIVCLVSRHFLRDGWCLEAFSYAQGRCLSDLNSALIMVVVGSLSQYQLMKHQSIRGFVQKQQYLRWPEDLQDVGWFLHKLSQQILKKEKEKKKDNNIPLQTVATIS
Nucleotide-binding oligomerization domain-containing protein 2 (Homo sapiens), sequence (Q9HC29 whole entry, the tested form may be a part): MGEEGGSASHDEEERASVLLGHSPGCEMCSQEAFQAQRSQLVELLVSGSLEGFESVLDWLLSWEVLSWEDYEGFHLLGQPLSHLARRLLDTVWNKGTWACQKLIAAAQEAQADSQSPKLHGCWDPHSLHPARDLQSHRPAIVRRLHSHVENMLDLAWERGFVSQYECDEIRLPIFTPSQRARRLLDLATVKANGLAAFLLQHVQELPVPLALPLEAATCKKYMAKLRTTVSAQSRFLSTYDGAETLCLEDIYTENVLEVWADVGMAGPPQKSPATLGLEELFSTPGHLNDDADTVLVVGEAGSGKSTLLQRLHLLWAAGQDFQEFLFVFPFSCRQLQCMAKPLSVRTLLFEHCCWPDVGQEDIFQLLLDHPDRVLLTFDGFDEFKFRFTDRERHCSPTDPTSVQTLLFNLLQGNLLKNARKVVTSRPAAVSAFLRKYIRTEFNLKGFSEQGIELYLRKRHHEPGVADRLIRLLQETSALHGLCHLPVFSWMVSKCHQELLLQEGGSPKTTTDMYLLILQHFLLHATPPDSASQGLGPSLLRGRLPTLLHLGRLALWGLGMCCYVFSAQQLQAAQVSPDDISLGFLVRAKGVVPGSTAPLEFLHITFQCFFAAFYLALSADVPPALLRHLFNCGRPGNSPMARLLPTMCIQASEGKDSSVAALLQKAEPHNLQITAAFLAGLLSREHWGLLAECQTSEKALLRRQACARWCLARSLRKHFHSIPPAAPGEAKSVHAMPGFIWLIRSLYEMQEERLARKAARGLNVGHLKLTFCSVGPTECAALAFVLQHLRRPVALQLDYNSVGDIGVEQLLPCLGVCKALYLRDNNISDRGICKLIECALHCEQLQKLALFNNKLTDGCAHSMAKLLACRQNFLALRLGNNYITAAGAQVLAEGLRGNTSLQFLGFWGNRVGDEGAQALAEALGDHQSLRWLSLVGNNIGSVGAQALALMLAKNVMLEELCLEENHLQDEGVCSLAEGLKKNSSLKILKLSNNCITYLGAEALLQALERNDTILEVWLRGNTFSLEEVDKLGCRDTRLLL

CCCc1cc2c(N)nc3ccccc3c2o1
inactive: all assays above

CCCCc1cc2c(nc(N)c3ccccc32)o1
inactive: all assays above

Nc1nc2ccccc2c2oc(-c3ccccc3)cc12
inactive: all assays above

CCCCc1cc2c(N)nc3ccccc3c2o1
inactive: all assays above
